From publication PMC7504360 (International Journal of Molecular Sciences, 2020)
Where two headings read alike, the source gives them in different places. Square brackets hold non-standard residues; d marks the D form. Peptide text beside a SMILES is read from it.

Key:
[1] = system: all bacterial strains; experiment: Mean MIC over all bacterial strains (GM); type: cell-based; settings: mean MIC of all bacterial strains of Table 2
Protocol: (§1) Briefly, the microplates were inoculated with two-fold serial dilutions of each peptides in Mueller–Hinton (MH) media and then seeded with log-phase culture of aforementioned bacterial suspensions (2 × 10^5 CFU/mL). The microplates were incubated for 16 h at 37 °C, and absorbance was read at 600 nm using microplate reader SpectraMAX (Molecular Devices, San Jose, CA, USA).

[2] = system: sheep red blood cells (sRBCs); experiment: Hemolytic activity; type: cell-based
Protocol: The hemolytic activity of all Pro-peptides were tested against sheep red blood cells (sRBCs) as described in previous reports. Fresh sRBCs were washed three times with phosphate-buffered saline (PBS) followed by centrifugation for 5 min at 2500 rpm at 4 °C. Peptides (0.2 to 100 μM) in PBS were incubated with 4% (v/v) sRBCs for 1 h at 37 °C. The contents were then centrifuged for 5 min at 1000 × g. The absorbance of the supernatant at 405 nm was used as a measure of hemolysis, and three times independent measurements were averaged. As a control, 100% hemolysis was obtained by treating sRBCs with melittin.

[3] = system: RAW264.7 cells; experiment: Cytotoxicity, WST-8 cell proliferation assay; type: cell-based, mouse; settings: 24 h, WST-8, 450 nm, mean of three experiments
Protocol: Murine RAW264.7 macrophage cells were purchased from Korean Cell Line Bank (Seoul, South Korea). The cells were cultured in Dulbecco modified Eagle medium (DMEM) (Thermo Fischer Scientific Inc., MA, USA) supplemented with 10% fetal bovine serum, 100 U/mL penicillin, and […] streptomycin at 37 °C in a humidified 5% CO2 incubator. The cytotoxicity of peptides against RAW264.7 cells was determined using WST-8 Cell Proliferation Assay Kit (Biomax Co.,Ltd, Seoul, South Korea). Briefly, cells (1 × 10^5) were seeded in 96-well plated and then treated with 3.125, 6.25, 12.5, 25, and 50 μM of respective peptides for 24 h followed by addition of 10 μL of the WST-8 reagent for another 3 h incubation at 37 °C. The color intensity was read at 450 nm using a microplate reader.

[4] = system: MDRAB 12010 (A. baumannii CCARM 12010)
Text: (§2) Two strains of gram-negative bacteria, namely E. coli (KCTC 1682) and A. baumannii (KCCM 40203) from the Korean Collection for Type Cultures (KCTC) (Taejon, Korea) and Korean Culture Center of Microorganisms (KCCM) (Seoul, South Korea). Escherichia coli K1 strain RS218 (O18:K1:H7) was a gift from Prof. Jang-Won Yoon in Kangwon National University (Chuncheon, South Korea). Multidrug-resistant gram-negative bacteria (E. coli CCARM 1229, E. coli CCARM 1238, A. baumannii CCARM 12010, and A. baumannii CCARM 12220) were obtained from the Culture Collection of Antibiotic-Resistant Microbes (CCARM) at Seoul Women’s University (Seoul, South Korea).
as §1

[5] = system: MDRAB 12220 (A. baumannii CCARM 12220)
Text: as §2, §1

[6] = system: MDREC 1229 (E. coli CCARM 1229)
Text: as §2, §1

[7] = system: A. baumannii (KCCM 40203)
Text: as §2, §1

[8] = system: E. Coli
Text: as §2, §1

[9] = system: MDREC 1238 (E. coli CCARM 1238)
Text: as §2, §1

[10] = system: chymotrypsin; experiment: Protease stability assay (antimicrobial activity after protease digestion); type: in vitro ADME; settings: peptide–enzyme 10,000:1, PBS, 6 h at 37 °C preincubation, then E. coli and A. baumannii 2 × 10^5 CFU/mL, 16 h at 37 °C, 600 nm, repeated three times
Protocol: (§3) For stability analysis, all Pro-peptides at their MICs were incubated with trypsin and chymotrypsin at the ratio of 10,000:1 (peptide–enzyme) in PBS for 6 h at 37 °C. After incubation, 100 μL of peptide-protease mixture was added to the 100 μL bacterial suspension (E. coli and A. baumannii, 2 × 10^5 CFU/mL) and further incubated for 16 h at 37 °C. Melittin was used as standard peptide, and bacterial suspension without peptide and protease served as control. The experiment was repeated three times, and the extent of bacterial growth was measured at 600 nm using a microplate reader.

[11] = system: Standard gram-negative bacteria; settings: table row printed 'Standard gram-negative bacteria'; MH media, 2 × 10^5 CFU/mL, 16 h at 37 °C, absorbance 600 nm; average of three measurements
Text: as §2, §1

[12] = system: trypsin; experiment: Protease stability assay (antimicrobial activity after protease digestion); type: in vitro ADME; settings: peptide–enzyme 10,000:1, PBS, 6 h at 37 °C preincubation, then E. coli and A. baumannii 2 × 10^5 CFU/mL, 16 h at 37 °C, 600 nm, repeated three times
Protocol: as §3

[13] = LPS neutralization, limulus amebocyte lysate (LAL) assay; type: biochemical, Escherichia coli O111:B4; settings: 50 μM peptide, 20 ng/mL LPS, 30 min at 37 °C, LAL chromogenic kit, 405 nm; triplicate
Protocol: The LPS-neutralizing activity of all peptides was determined using the Pierce LAL chromogenic endotoxin quantitation kit (ThermoFisher Scientific, MA, USA). All peptides including standard (Polymixin B) at varying concentrations (3.12, 6.25, 12.5, 25, and 50 μM in endotoxin-free water) were allowed to bind with 20 ng/mL of LPS in a 96-well plate for 30 min at 37 °C. To this, an equal volume (10 μL) of LAL reagent was added and incubated for 10 min at 37 °C and then 20μL of LAL chromogenic substrate was added. After 15 min incubation at 37 °C, the reaction was stopped by 25% acetic acid and the reduction in yellow color formation due to the substrate was measured at 405 nm on an absorbance microplate reader. The experiment was conducted in triplicate, and the changes in absorbance due to peptide-LPS interaction are indicated as percent LPS neutralization.

Molecule	HC10 (peptide concentration inducing 10% hemolysis) ([2]; red cells of sheep, 1 h)	survival rate of RAW264.7 cells ([3]; 25 μM)	survival rate of RAW264.7 cells ([3]; 50 μM)	Minimal Inhibitory Concentration (MIC100) ([4]; CCARM 12010, 16 h)	Minimal Inhibitory Concentration (MIC100) ([5]; CCARM 12220, 16 h)	Minimal Inhibitory Concentration (MIC100) ([6]; CCARM 1229, 16 h)	Minimal Inhibitory Concentration (MIC100) ([7]; KCCM 40203, 16 h)	Minimal Inhibitory Concentration (MIC100) ([8]; 16 h)	Minimal Inhibitory Concentration (MIC100) ([9]; CCARM 1238, 16 h)	peptide concentration up to which bacterial growth was not inhibited in the presence of protease [10]	Minimal Inhibitory Concentration (MIC100) [11]	further results
CC[C@H](C)[C@H](NC(=O)CN)C(=O)NCC(=O)N[C@@H](C)C(=O)N[C@H](C(=O)N[C@@H](CC(C)C)C(=O)N[C@@H](CCCCN)C(=O)N[C@H](C(=O)N[C@@H](CC(C)C)C(=O)N[C@H](C(=O)N[C@H](C(=O)NCC(=O)N[C@@H](CC(C)C)C(=O)N1CCC[C@H]1C(=O)N[C@@H](C)C(=O)N[C@@H](CC(C)C)C(=O)N[C@H](C(=O)N[C@@H](CO)C(=O)N[C@@H](Cc1c[nH]c2ccccc12)C(=O)N[C@H](C(=O)N[C@@H](CCCCN)C(=O)N[C@@H](CCCNC(=N)N)C(=O)N[C@@H](CCCCN)C(=O)N[C@@H](CCCNC(=N)N)C(=O)N[C@@H](CCC(N)=O)C(=O)N[C@@H](CCC(N)=O)C(N)=O)[C@@H](C)CC)[C@@H](C)CC)[C@@H](C)O)[C@@H](C)O)C(C)C)C(C)C [Melittin, reference compound]												GM (geometric mean of MIC values of all bacterial strains) [1]: 12.0 µM
CC[C@@H](C)[C@@H](NC(=O)[C@@H](C)NC(=O)[C@@H](CC(C)C)NC(=O)[C@@H](Cc1c[nH]c2ccccc12)NC(=O)[C@@H](CC(C)C)NC(=O)[C@H](N)CCCNC(=N)N)C(=O)N[C@H](Cc1c[nH]c2ccccc12)C(=O)N[C@H](CCCNC(=N)N)C(=O)N[C@H](CCCNC(=N)N)C(N)=O [Pro9-3D] (H-[dR][dL][dW][dL][dA][dI][dW][dR][dR]-NH2)	200 µM	68%	51.8%	8 µM	8 µM	8 µM	4 µM	4 µM	4 µM			
CC[C@H](C)[C@H](NC(=O)[C@H](C)NC(=O)[C@H](CC(C)C)NC(=O)[C@H](Cc1c[nH]c2ccccc12)NC(=O)[C@H](CC(C)C)NC(=O)[C@@H](N)CCCNC(=N)N)C(=O)N[C@@H](Cc1c[nH]c2ccccc12)C(=O)N[C@@H](CCCNC(=N)N)C(=O)N[C@@H](CCCNC(=N)N)C(N)=O [Pro9-3] (H-RLWLAIWRR-NH2)	200 µM	95%	94%	16 µM	16 µM	16 µM	16 µM	16 µM	32 µM	> 64 µM	16 µM	
CC[C@H](C)[C@H](NC(=O)[C@H](C)NC(=O)[C@H](CC(C)C)NC(=O)[C@H](Cc1c[nH]c2ccccc12)NC(=O)[C@H](CC(C)C)NC(=O)[C@H](CCCNC(=N)N)NC(=O)[C@@H](N)CCCNC(=N)N)C(=O)N[C@@H](Cc1c[nH]c2ccccc12)C(=O)N[C@@H](CCCNC(=N)N)C(=O)N[C@@H](CCCNC(=N)N)C(N)=O [Pro10-1] (H-RRLWLAIWRR-NH2)		90%	87%							> 64 µM	16 µM	hemolysis ([2]; 100 μM peptide, 4% (v/v) sRBCs in PBS, 1 h at 37 °C, absorbance 405 nm, three measurements averaged): no hemolytic activity; HC10 (peptide concentration inducing 10% hemolysis) ([2]; heparinized sheep red blood cells, 200 μM entered when no detectable hemolysis was observed at 100 μM): 200 µM; peptide concentration up to which bacterial growth was not inhibited in the presence of protease [12]: > 64 µM; Minimal Inhibitory Concentration (MIC100) ([4]; MDRAB 12010, MH media, 2 × 10^5 CFU/mL, 16 h at 37 °C, absorbance 600 nm, average of three measurements): 8 µM; Minimal Inhibitory Concentration (MIC100) ([5]; MDRAB 12220, MH media, 2 × 10^5 CFU/mL, 16 h at 37 °C, absorbance 600 nm, average of three measurements): 16 µM; Minimal Inhibitory Concentration (MIC100) ([6]; MDREC 1229, MH media, 2 × 10^5 CFU/mL, 16 h at 37 °C, absorbance 600 nm, average of three measurements): 8 µM; Minimal Inhibitory Concentration (MIC100) ([7]; A. baumannii, MH media, 2 × 10^5 CFU/mL, 16 h at 37 °C, absorbance 600 nm, average of three measurements): 8 µM; Minimal Inhibitory Concentration (MIC100) ([8]; table row printed 'E. Coli', MH media, 2 × 10^5 CFU/mL, 16 h at 37 °C, absorbance 600 nm, average of three measurements): 16 µM; Minimal Inhibitory Concentration (MIC100) ([9]; MDREC 1238, MH media, 2 × 10^5 CFU/mL, 16 h at 37 °C, absorbance 600 nm, average of three measurements): 32 µM
polymyxin B [reference compound]												inhibition of the activation of LPS (LPS neutralization) [13]: 67.4%
